From ChEMBL document CHEMBL1146461, “Vibsane diterpenoids from the leaves and flowers of Viburnum odoratissimum” (2004)

What was measured:
[1] = system: NUGC-3; experiment: Cytotoxicity against human NUGC3 assessed as survival at 20 ug/ml by MTS method; assay type: functional; details: read-out: Survival
[2] = Cytotoxicity against human HONE1 assessed as survival at 20 ug/ml by MTS method; assay type: functional; details: read-out: Survival

SMILES | viability at 20 µg/mL [1] [%] | viability at 20 µg/mL [2] [%]
C=C(C)C(O)CC[C@@]1(C)CC=C(CO)C(=O)[C@H](CC(C)=O)[C@@H]1/C=C/OC(=O)C=C(C)C (stereo not given in full) | 58 | –
C=C(C)C(CC[C@@]1(C)CC=C(COC(C)=O)C(=O)[C@@H](CC(C)=O)[C@@H]1/C=C/OC(=O)C=C(C)C)OC(C)=O (stereo not given in full) | 0 | 0
CC(=O)C[C@@H]1C(=O)C(COC(C)=O)=CC[C@](C)(C/C=C/C(C)(C)OC(C)=O)[C@H]1/C=C/OC(=O)C=C(C)C | 0 | 0
